Measurements: US20230021483A1, “[…] […] METHOD AND CLASSIFICATION OF PHARMACEUTICAL COMPONENTS BY USING TRANSCRIPTOMES” (National Institutes of Biomedical Innovation, Health and …, priority 2016, published 2023)

Test system: adjuvant-associated biological themes in LV, SP, LN
Outline: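 Per-mouse whole-organ transcriptomes; genes with eij/ei(c)>2.0 tested for theme enrichment via TargetMine (GO, KEGG, Reactome, others), Fisher's exact test, Holm-Bonferroni correction. Themes shared by all three mice kept at p<0.05, using the smallest p. Score per adjuvant-associated term = Σ−log(p) of matching themes.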

Substance: heptanoyl-γ-D-glutamyl-(L)-meso-diaminopimelyl-(D)-alanine [FK565]
- IFN alpha, GO annotation line 1 of 5 (LV, ID): 4.54
- IFN alpha, GO annotation line 2 of 5 (LV, ID): 0
- IFN alpha: cellular response to interferon-alpha (LV, ID): 0
- IFN alpha: positive regulation of interferon-alpha production (LV, ID): 0
- IFN alpha: regulation of interferon-alpha production (LV, ID): 0
- IFN beta: cellular response to interferon-beta (LV, ID): 9.65
- IFN beta: interferon-beta production (LV, ID): 0
- IFN beta: positive regulation of interferon-beta production (LV, ID): 0
- IFN beta: regulation of interferon-beta production (LV, ID): 0
- IFN beta: response to interferon-beta (LV, ID): 17.3
- IFN gamma: cellular response to interferon-gamma (LV, ID): 0
- IFN gamma: interferon-gamma production (LV, ID): 0
- IFN gamma: regulation of interferon-gamma production (LV, ID): 0
- IFN gamma: response to interferon-gamma (LV, ID): 11
- NF-kappa B signaling pathway, GO annotation line 1 of 4 (LV, ID): 19.8
- NF-kappa B signaling pathway, GO annotation line 3 of 4 (LV, ID): 3.05
- NF-kappa B signaling pathway, GO annotation line 4 of 4 (LV, ID): 5.82
- TNF signaling pathway (LV, ID): 30.9
- adaptive immune response, GO annotation line 1 of 5 (LV, ID): 8.99
- adaptive immune response, GO annotation line 2 of 5 (LV, ID): 8.71
- adaptive immune response, GO annotation line 3 of 5 (LV, ID): 3.56
- adaptive immune response, GO annotation line 4 of 5 (LV, ID): 0
- adaptive immune response, GO annotation line 5 of 5 (LV, ID): 0
- apoptosis, GO annotation line 1 of 8 (LV, ID): 15.2
- apoptosis, GO annotation line 2 of 8 (LV, ID): 13
- apoptosis, GO annotation line 3 of 8 (LV, ID): 19.9
- apoptosis, GO annotation line 4 of 8 (LV, ID): 13.9
- apoptosis, GO annotation line 5 of 8 (LV, ID): 6.58
- apoptosis, GO annotation line 6 of 8 (LV, ID): 13.2
- apoptosis, GO annotation line 7 of 8 (LV, ID): 0
- apoptosis, GO annotation line 8 of 8 (LV, ID): 8.33
- cell death, GO annotation line 1 of 9 (LV, ID): 21.7
- cell death, GO annotation line 2 of 9 (LV, ID): 16.4
- cell death, GO annotation line 3 of 9 (LV, ID): 15.7
- cell death, GO annotation line 4 of 9 (LV, ID): 14
- cell death, GO annotation line 5 of 9 (LV, ID): 12.9
- cell death, GO annotation line 6 of 9 (LV, ID): 7.1
- cell death, GO annotation line 7 of 9 (LV, ID): 7.29
- cell death, GO annotation line 8 of 9 (LV, ID): 0
- cell death, GO annotation line 9 of 9 (LV, ID): 0
- chemokine, GO annotation line 1 of 4 (LV, ID): 0
- chemokine, GO annotation line 2 of 4 (LV, ID): 0
- chemokine, GO annotation line 3 of 4 (LV, ID): 0
- chemokine, GO annotation line 4 of 4 (LV, ID): 0
- chemotaxis, GO annotation line 1 of 11 (LV, ID): 16.1
- chemotaxis, GO annotation line 2 of 11 (LV, ID): 0
- chemotaxis, GO annotation line 4 of 11 (LV, ID): 5.48
- chemotaxis, GO annotation line 5 of 11 (LV, ID): 0
- chemotaxis, GO annotation line 6 of 11 (LV, ID): 5.83
- chemotaxis, GO annotation line 7 of 11 (LV, ID): 6.49
- chemotaxis, GO annotation line 8 of 11 (LV, ID): 0
- chemotaxis, GO annotation line 9 of 11 (LV, ID): 0
- chemotaxis, GO annotation line 10 of 11 (LV, ID): 0
- chemotaxis, GO annotation line 11 of 11 (LV, ID): 0
- cytokine, GO annotation line 1 of 17 (LV, ID): 37.8
- cytokine, GO annotation line 2 of 17 (LV, ID): 32.6
- cytokine, GO annotation line 3 of 17 (LV, ID): 23.6
- cytokine, GO annotation line 4 of 17 (LV, ID): 17.1
- cytokine, GO annotation line 5 of 17 (LV, ID): 30.2
- cytokine, GO annotation line 6 of 17 (LV, ID): 27.5
- cytokine, GO annotation line 7 of 17 (LV, ID): 8.69
- cytokine, GO annotation line 8 of 17 (LV, ID): 16.2
- cytokine, GO annotation line 9 of 17 (LV, ID): 17
- cytokine, GO annotation line 10 of 17 (LV, ID): 18.6
- cytokine, GO annotation line 11 of 17 (LV, ID): 3.46
- cytokine, GO annotation line 12 of 17 (LV, ID): 14
- cytokine, GO annotation line 13 of 17 (LV, ID): 7.57
- cytokine, GO annotation line 14 of 17 (LV, ID): 7.13
- cytokine, GO annotation line 15 of 17 (LV, ID): 10.1
- cytokine, GO annotation line 16 of 17 (LV, ID): 0
- cytokine, GO annotation line 17 of 17 (LV, ID): 0
- defense response, GO annotation line 1 of 11 (LV, ID): 57.8
- defense response, GO annotation line 2 of 11 (LV, ID): 29.6
- defense response, GO annotation line 3 of 11 (LV, ID): 24.9
- defense response, GO annotation line 4 of 11 (LV, ID): 18.4
- defense response, GO annotation line 5 of 11 (LV, ID): 5.98
- defense response, GO annotation line 6 of 11 (LV, ID): 6.22
- defense response, GO annotation line 7 of 11 (LV, ID): 0
- defense response, GO annotation line 8 of 11 (LV, ID): 0
- defense response, GO annotation line 9 of 11 (LV, ID): 0
- defense response, GO annotation line 10 of 11 (LV, ID): 0
- defense response, GO annotation line 11 of 11 (LV, ID): 0
- immune response, GO annotation line 1 of 8 (LV, ID): 46.1
- immune response, GO annotation line 2 of 8 (LV, ID): 20.8
- immune response, GO annotation line 3 of 8 (LV, ID): 19.5
- immune response, GO annotation line 4 of 8 (LV, ID): 11.9
- immune response, GO annotation line 5 of 8 (LV, ID): 9.97
- immune response, GO annotation line 6 of 8 (LV, ID): 12.1
- immune response, GO annotation line 7 of 8 (LV, ID): 0
- immune response, GO annotation line 8 of 8 (LV, ID): 0
- inflammatory response, GO annotation line 1 of 5 (LV, ID): 29.8
- inflammatory response, GO annotation line 2 of 5 (LV, ID): 11.4
- inflammatory response, GO annotation line 3 of 5 (LV, ID): 3.69
- inflammatory response, GO annotation line 4 of 5 (LV, ID): 0
- inflammatory response, GO annotation line 5 of 5 (LV, ID): 0
- innate immune response, GO annotation line 1 of 6 (LV, ID): 33.7
- innate immune response, GO annotation line 2 of 6 (LV, ID): 19.7
- innate immune response, GO annotation line 3 of 6 (LV, ID): 16.7
- innate immune response, GO annotation line 4 of 6 (LV, ID): 16.2
- innate immune response, GO annotation line 5 of 6 (LV, ID): 14.3
- innate immune response, GO annotation line 6 of 6 (LV, ID): 0
- interleukin-6: interleukin-6 production (LV, ID): 3.6
- interleukin-6: positive regulation of interleukin-6 production (LV, ID): 0
- interleukin-6: regulation of interleukin-6 production (LV, ID): 4.17
- interleukin-12: interleukin-12 production (LV, ID): 8.76
- interleukin-12: positive regulation of interleukin-12 production (LV, ID): 3.24
- interleukin-12: regulation of interleukin-12 production (LV, ID): 9.49
- migration, GO annotation line 1 of 10 (LV, ID): 13.6
- migration, GO annotation line 2 of 10 (LV, ID): 8.98
- migration, GO annotation line 3 of 10 (LV, ID): 14.2
- migration, GO annotation line 4 of 10 (LV, ID): 7.86
- migration, GO annotation line 5 of 10 (LV, ID): 7.57
- migration, GO annotation line 6 of 10 (LV, ID): 6.55
- migration, GO annotation line 7 of 10 (LV, ID): 6.19
- migration, GO annotation line 8 of 10 (LV, ID): 4.49
- migration, GO annotation line 9 of 10 (LV, ID): 0
- migration, GO annotation line 10 of 10 (LV, ID): 0
- stress, GO annotation line 1 of 3 (LV, ID): 57.7
- stress, GO annotation line 2 of 3 (LV, ID): 28.5
- stress, GO annotation line 3 of 3 (LV, ID): 9.02
- wounding, GO annotation line 1 of 3 (LV, ID): 12.1
- wounding, GO annotation line 2 of 3 (LV, ID): 12.8
- wounding, GO annotation line 3 of 3 (LV, ID): 9.45
- NF-kappa B signaling pathway, GO annotation line 2 of 4 (mouse, in vivo): 12.9
- chemotaxis, GO annotation line 3 of 11 (mouse, in vivo): 15.7
